The values that follow come from patent publication US20190307776A1, “AZA-S[…] HUMAN IMMUNODEFICIENCY VIRUS REPLICATION” (priority 2016, published 2019).

The test deals with recombinant NL4-3 virus. The test is described as follows: HIV cell culture assay. It is filed as cell-based. The following applies: Human immunodeficiency virus 1, NL43, MT2. As for the experimental part: HIV cell culture assay—MT-2 cells and 293T cells were obtained from the NIH AIDS Research and Reference Reagent Program. MT-2 cells were propagated in RPMI 1640 media supplemented with 10% heat inactivated fetal bovine serum, 100 […]. The 293T cells were propagated in DMEM media supplemented with 10% heat inactivated fetal bovine serum (FBS), 100 units/ml penicillin G and 100 μg/ml streptomycin. The proviral DNA clone of NL4-3 was obtained from the NIH AIDS Research and Reference Reagent Program. A recombinant NL4-3 virus, in which a section of the nef gene from NL4-3 was replaced with the Renilla luciferase gene, was used as a reference virus. In addition, residue Gag P373 was converted to P373S. Briefly, the recombinant virus was prepared by transfection of the altered proviral clone of NL4-3. Transfections were performed in 293T cells using LipofectAMINE PLUS from Invitrogen (Carlsbad, Calif.), according to manufacturer's instruction. The virus was titered in MT-2 cells using luciferase enzyme activity as a marker. Luciferase was quantitated using the Dual Luciferase kit from Promega (Madison, Wis.), with modifications to the manufacturer's protocol. The diluted Passive Lysis solution was pre-mixed with the re-suspended Luciferase Assay Reagent and the re-suspended Stop & Glo Substrate (2:1:1 ratio). Fifty (50) μL of the mixture was added to each aspirated well on assay plates and luciferase activity was measured immediately on a Wallac TriLux (Perkin-Elmer). Antiviral activities of inhibitors toward the recombinant virus were quantified by measuring luciferase activity in cells infected for 4-5 days with NLRluc recombinants in the presence serial dilutions of the inhibitor.
As for `C=C(C)[C@@H]1CC[C@]2(CO)CC[C@]3(C)[C@H](CC[C@@H]4[C@@]5(C)CCCN(C(=O)CC(=O)O)C(C)(C)C5CC[C@]43C)[C@@H]12` (stereo partly drawn) [Example 1, 3-((7aR,7bR,9aS,12R,12aR,12bR,14aR,14bR)-9a-(hydroxymethyl)-5,5,7a,7b,14b-pentamethyl-12-(prop-1-en-2-yl)icosahydrocyclopenta[7,8]phenanthro[2,1-c]azepin-4(1H)-yl)-3-oxopropanoic acid], the EC50 was found to be 2310 nM.
As for `C=C(C)[C@@H]1CC[C@]2(CO)CC[C@]3(C)[C@H](CC[C@@H]4[C@@]5(C)CCCN(C(=O)c6cccc(C(=O)O)c6)C(C)(C)C5CC[C@]43C)[C@@H]12` (stereo partly drawn) [Example 2, 3-((7aR,7bR,9aS,12R,12aR,12bR,14aR,14bR)-9a-(hydroxymethyl)-5,5,7a,7b,14b-pentamethyl-12-(prop-1-en-2-yl)docosahydrocyclopenta[7,8]phenanthro[2,1-c]azepine-4-carbonyl)benzoic acid], the figure is greater than 8000 nM; as for `C=C(C)[C@@H]1CC[C@]2(CO)CC[C@]3(C)[C@H](CC[C@@H]4[C@@]5(C)CCCN(C(=O)CCC(=O)O)C(C)(C)C5CC[C@]43C)[C@@H]12` (stereo partly drawn) [Example 3, 4-((7aR,7bR,9aS,12R,12aR,12bR,14aR,14bR)-9a-(hydroxymethyl)-5,5,7a,7b,14b-pentamethyl-12-(prop-1-en-2-yl)icosahydrocyclopenta[7,8]phenanthro[2,1-c]azepin-4(1H)-yl)-4-oxobutanoic acid], greater than 8000 nM.
As for `C=C(C)[C@@H]1CC[C@]2(CO)CC[C@]3(C)[C@H](CC[C@@H]4[C@@]5(C)CCCN(C(=O)CCCCC(=O)O)C(C)(C)C5CC[C@]43C)[C@@H]12` (stereo partly drawn) [Example 4, 6-((7aR,7bR,9aS,12R,12aR,12bR,14aR,14bR)-9a-(hydroxymethyl)-5,5,7a,7b,14b-pentamethyl-12-(prop-1-en-2-yl)icosahydrocyclopenta[7,8]phenanthro[2,1-c]azepin-4(1H)-yl)-6-oxohexanoic acid], the figure is greater than 8000 nM; as for `C=C(C)[C@@H]1CC[C@]2(CO)CC[C@]3(C)[C@H](CC[C@@H]4[C@@]5(C)CCN(C(=O)c6cccc(C(=O)O)c6)C(C)(C)C5CC[C@]43C)[C@@H]12` (stereo partly drawn) [Example 5, 3-((6aR,6bR,8aS,11R,11aR,11bR,13aR,13bR)-8a-(hydroxymethyl)-4,4,6a,6b,13b-pentamethyl-11-(prop-1-en-2-yl)icosahydro-1H-cyclopenta[5,6]naphtho[2,1-f]isoquinoline-3-carbonyl)benzoic acid], 1250 nM; as for `C=C(C)[C@@H]1CC[C@]2(CO)CC[C@]3(C)[C@H](CC[C@@H]4[C@@]5(C)CCN(C(=O)C(=O)O)C(C)(C)C5CC[C@]43C)[C@@H]12` (stereo partly drawn) [Example 6, 2-((6aR,6bR,8aS,11R,11aR,11bR,13aR,13bR)-8a-(hydroxymethyl)-4,4,6a,6b,13b-pentamethyl-11-(prop-1-en-2-yl)icosahydro-3H-cyclopenta[5,6]naphtho[2,1-f]isoquinolin-3-yl)-2-oxoacetic acid], 4000 nM.
Regarding `C=C(C)[C@@H]1CC[C@]2(CO)CC[C@]3(C)[C@H](CC[C@@H]4[C@@]5(C)CCN(C(=O)CC(=O)O)C(C)(C)C5CC[C@]43C)[C@@H]12` (stereo partly drawn) [Example 7, 3-((6aR,6bR,8aS,11R,11aR,11bR,13aR,13bR)-8a-(hydroxymethyl)-4,4,6a,6b,13b-pentamethyl-11-(prop-1-en-2-yl)icosahydro-3H-cyclopenta[5,6]naphtho[2,1-f]isoquinolin-3-yl)-3-oxopropanoic acid], the EC50 worked out at 480 nM.
Next, `C=C(C)[C@@H]1CC[C@]2(CO)CC[C@]3(C)[C@H](CC[C@@H]4[C@@]5(C)CCN(C(=O)CCCC(=O)O)C(C)(C)C5CC[C@]43C)[C@@H]12` (stereo partly drawn) [Example 8, 5-((6aR,6bR,8aS,11R,11aR,11bR,13aR,13bR)-8a-(hydroxymethyl)-4,4,6a,6b,13b-pentamethyl-11-(prop-1-en-2-yl)icosahydro-3H-cyclopenta[5,6]naphtho[2,1-f]isoquinolin-3-yl)-5-oxopentanoic acid]: 1810 nM.
As to `C=C(C)[C@@H]1CC[C@]2(CO)CC[C@]3(C)[C@H](CC[C@@H]4[C@@]5(C)CCN(C(=O)CCC(=O)O)C(C)(C)C5CC[C@]43C)[C@@H]12` (stereo partly drawn) [Example 9, 4-((6aR,6bR,8aS,11R,11aR,11bR,13aR,13bR)-8a-(hydroxymethyl)-4,4,6a,6b,13b-pentamethyl-11-(prop-1-en-2-yl)icosahydro-3H-cyclopenta[5,6]naphtho[2,1-f]isoquinolin-3-yl)-4-oxobutanoic acid], the EC50 worked out at 2760 nM.
Next, `C=C(C)[C@@H]1CC[C@]2(CO)CC[C@]3(C)[C@H](CC[C@@H]4[C@@]5(C)CCN(C(=O)c6ccc(C(=O)O)cc6)C(C)(C)C5CC[C@]43C)[C@@H]12` (stereo partly drawn) [Example 10, 4-((6aR,6bR,8aS,11R,11aR,11bR,13aR,13bR)-8a-(hydroxymethyl)-4,4,6a,6b,13b-pentamethyl-11-(prop-1-en-2-yl)icosahydro-1H-cyclopenta[5,6]naphtho[2,1-f]isoquinoline-3-carbonyl)benzoic acid]: 320 nM.
As for `C=C(C)[C@@H]1CC[C@]2(CO)CC[C@]3(C)[C@H](CC[C@@H]4[C@@]5(C)CCCN(S(=O)(=O)c6ccc(C(=O)O)o6)C(C)(C)C5CC[C@]43C)[C@@H]12` (stereo partly drawn) [Example 11, 5-(((7aR,7bR,9aS,12R,12aR,12bR,14aR,14bR)-9a-(hydroxymethyl)-5,5,7a,7b,14b-pentamethyl-12-(prop-1-en-2-yl)icosahydrocyclopenta[7,8]phenanthro[2,1-c]azepin-4(1H)-yl)sulfonyl)furan-2-carboxylic acid], the figure is greater than 8000 nM.
In the case of `C=C(C)[C@@H]1CC[C@]2(CO)CC[C@]3(C)[C@H](CC[C@@H]4[C@@]5(C)CCCN(S(=O)(=O)c6ccc(/C=C/C(=O)O)cc6)C(C)(C)C5CC[C@]43C)[C@@H]12` (stereo partly drawn) [Example 12, (E)-3-(4-(((7aR,7bR,9aS,12R,12aR,12bR,14aR,14bR)-9a-(hydroxymethyl)-5,5,7a,7b,14b-pentamethyl-12-(prop-1-en-2-yl)icosahydrocyclopenta[7,8]phenanthro[2,1-c]azepin-4(1H)-yl)sulfonyl)phenyl)acrylic acid], the EC50 is greater than 8000 nM.
Next, `C=C(C)[C@@H]1CC[C@]2(CO)CC[C@]3(C)[C@H](CC[C@@H]4[C@@]5(C)CCCN(S(=O)(=O)c6cccc(C(=O)O)c6)C(C)(C)C5CC[C@]43C)[C@@H]12` (stereo partly drawn) [Example 13, 3-(((7aR,7bR,9aS,12R,12aR,12bR,14aR,14bR)-9a-(hydroxymethyl)-5,5,7a,7b,14b-pentamethyl-12-(prop-1-en-2-yl)icosahydrocyclopenta[7,8]phenanthro[2,1-c]azepin-4(1H)-yl)sulfonyl)benzoic acid]: greater than 8000 nM.
`C=C(C)[C@@H]1CC[C@]2(CO)CC[C@]3(C)[C@H](CC[C@@H]4[C@@]5(C)CCCN(S(=O)(=O)c6ccc(C(=O)O)cc6)C(C)(C)C5CC[C@]43C)[C@@H]12` (stereo partly drawn) [Example 14, 4-(((7aR,7bR,9aS,12R,12aR,12bR,14aR,14bR)-9a-(hydroxymethyl)-5,5,7a,7b,14b-pentamethyl-12-(prop-1-en-2-yl)icosahydrocyclopenta[7,8]phenanthro[2,1-c]azepin-4(1H)-yl)sulfonyl)benzoic acid]: the EC50 worked out at 1700 nM.
As for `C=C(C)[C@@H]1CC[C@]2(CO)CC[C@]3(C)[C@H](CC[C@@H]4[C@@]5(C)CCCN(S(=O)(=O)c6ccc(CC(=O)O)cc6)C(C)(C)C5CC[C@]43C)[C@@H]12` (stereo partly drawn) [Example 15, 2-(4-(((7aR,7bR,9aS,12R,12aR,12bR,14aR,14bR)-9a-(hydroxymethyl)-5,5,7a,7b,14b-pentamethyl-12-(prop-1-en-2-yl)icosahydrocyclopenta[7,8]phenanthro[2,1-c]azepin-4(1H)-yl)sulfonyl)phenyl)acetic acid], the figure is greater than 8000 nM; as for `C=C(C)[C@@H]1CC[C@]2(CO)CC[C@]3(C)[C@H](CC[C@@H]4[C@@]5(C)CCCN(S(=O)(=O)c6ccc(C)c(C(=O)O)c6)C(C)(C)C5CC[C@]43C)[C@@H]12` (stereo partly drawn) [Example 16, 5-(((7aR,7bR,9aS,12R,12aR,12bR,14aR,14bR)-9a-(hydroxymethyl)-5,5,7a,7b,14b-pentamethyl-12-(prop-1-en-2-yl)icosahydrocyclopenta[7,8]phenanthro[2,1-c]azepin-4(1H)-yl)sulfonyl)-2-methylbenzoic acid], greater than 8000 nM; as for `C=C(C)[C@@H]1CC[C@]2(CO)CC[C@]3(C)[C@H](CC[C@@H]4[C@@]5(C)CCN(S(=O)(=O)c6cccc(C(=O)O)c6)C(C)(C)C5CC[C@]43C)[C@@H]12` (stereo partly drawn) [Example 17, 3-(((6aR,6bR,8aS,11R,11aR,11bR,13aR,13bR)-8a-(hydroxymethyl)-4,4,6a,6b,13b-pentamethyl-11-(prop-1-en-2-yl)icosahydro-3H-cyclopenta[5,6]naphtho[2,1-f]isoquinolin-3-yl)sulfonyl)benzoic acid], 4940 nM.
